{"source": "patent US12128035B2", "about": "“Activating pyruvate kinase R” (Novo Nordisk Health Care AG, priority 2021, dated 2024)", "tested_on": "2,3-DPG blood levels", "experiment": "Phase 1: blood 2,3-DPG in SCD patients", "assay_type": "in vivo, human", "experimental": "In this study, SAD/MAD cohorts are randomized (3 to 1) to receive Compound 1 or placebo (P). Compound 1 was evaluated first in 4 healthy SAD cohorts and 4 healthy MAD (14-day dosing period) cohorts. Based on the safety, and PK/PD profile from HS, Compound 1 is then evaluated in 1 SCD SAD cohort and 2 SCD MAD cohorts. Specifically, based on the safety and pharmacokinetic/pharmacodynamics (PK/PD) profile in healthy volunteer studies, Compound 1 is evaluated in patients (pts) with SCD, first in a single dose (SD or SAD) cohort and then in multiple-dose (MD or MAD) cohorts (14-day and 12-week). Safety assessments include AEs, vital signs, ECGs and laboratory parameters. PK/PD blood sampling was performed on Day 1 (SAD/MAD) and Day 14 (MAD) and up to 72 h after the last dose and at the end-of-study visit. PD parameters included 2,3-DPG, ATP, and p50 in all cohorts with additional PD studies (including oxygen scan) performed only in the SCD cohorts. PD parameters included 2,3-DPG, ATP, p50, RBC deformability with controlled deoxygenation and reoxygenation (Lorrca® oxygen scan) and varying osmolality (Lorrca® osmoscan)). To maintain study blind, pt identifiers were removed when needed.\nThe onset of the increase in ATP blood levels after a single 700 mg dose of Compound 1 was faster in SCD patients than in healthy volunteers, while the onset of the decrease in 2,3-DPG blood levels was slower.\nThe following procedures are employed for the analysis of ATP and 2,3-DPG in human whole blood K2EDTA using a protein precipitation extraction procedure and analysis by LC-MS/MS.\nThe following procedures are used for sample extraction prior to analysis via LC-MS/MS. 15.0 μL of the calibration standards, quality controls, matrix blanks, and samples are aliquoted into a 96-well plate. 50.0 μL of the internal standard spiking solution is added to all samples on the plate, with the exception of the matrix blank samples; 50.0 μL of water is added to the matrix blank samples. Subsequently, 150 μL of water is added to all samples on the plate. The plate is then covered and agitated by vortex at high speed for ten minutes, after which 750 μL of methanol is added to all samples on the plate. The plate is covered and agitated by vortex for approximately 1 minute. The plate is then centrifuged at approximately 3500 RPM at approximately 4° C. for five minutes. After centrifugation, a liquid handler is used to transfer 50 μL of each sample to a new 96-well plate, and 200 μL of acetonitrile is added to all samples on the plate. The newly prepared plate is covered and agitated by vortex for approximately 1 minute. The plate is then centrifuged at approximately 3500 RPM at approximately 4° C. for 2 minutes."}
{"compound": "O=C([C@H](CO)c1ccccc1)N1CC2=C(C1)CN(S(=O)(=O)c1cnc3c(c1)OCCO3)C2", "note": "(single isomer, unassigned) [Compound 1]", "values": [{"measurement": "mean percentage change in 2,3-DPG blood levels", "setting": "SCD 300 mg QD, Day 1, 0 h after first daily dose", "result": 0, "unit": "%"}, {"measurement": "mean percentage change in 2,3-DPG blood levels", "setting": "SCD 300 mg QD, Day 1, 24 h after first daily dose", "result": "−23", "unit": "%"}, {"measurement": "mean percentage change in 2,3-DPG blood levels", "setting": "SCD 300 mg QD, Day 14, 0 h after first daily dose", "result": "−25", "unit": "%"}, {"measurement": "mean percentage change in 2,3-DPG blood levels", "setting": "SCD 300 mg QD, Day 14, 6 h after first daily dose", "result": "−29", "unit": "%"}, {"measurement": "mean percentage change in 2,3-DPG blood levels", "setting": "SCD 300 mg QD, Day 14, 24 h after first daily dose", "result": "−29", "unit": "%"}, {"measurement": "mean percentage change in 2,3-DPG blood levels", "setting": "SCD 300 mg QD, Day 14, 48 h after first daily dose", "result": "−22", "unit": "%"}, {"measurement": "mean percentage change in 2,3-DPG blood levels", "setting": "SCD single 700 mg, 0 h after dose", "result": 0, "unit": "%"}, {"measurement": "mean percentage change in 2,3-DPG blood levels", "setting": "SCD single 700 mg, 6 h after dose", "result": "−16", "unit": "%"}, {"measurement": "mean percentage change in 2,3-DPG blood levels", "setting": "SCD single 700 mg, 24 h after dose", "result": "−31", "unit": "%"}, {"measurement": "mean percentage change in 2,3-DPG blood levels", "setting": "SCD single 700 mg, 48 h after dose", "result": "−21", "unit": "%"}, {"measurement": "mean percentage change in 2,3-DPG blood levels", "setting": "SCD single 700 mg, 72 h after dose", "result": "−8", "unit": "%"}, {"measurement": "lag of maximum decrease in blood 2,3-DPG behind maximum plasma concentration", "setting": "SCD single 700 mg, FIG. 54B", "result": "about 24 hours"}, {"measurement": "decrease in 2,3-DPG blood concentrations", "setting": "SCD, 24 hours after single 700-mg dose, FIG. 46A", "result": 26, "unit": "%"}]}
